In patent publication US20050187240A1, “Aaptamine and isoaaptamine and structural modifications thereof” (The Arizona Board of Regents, Acting for and on behalf of …, priority 2004, published 2005):
≈ marks a conversion by molar mass, not a printed value. Counter-ions that a name gives are not always drawn. Like-named read-outs stand apart in the source and are kept apart here.

Assays:
[1] = tested on: Neisseria gonorrhoeae; experiment: Broth microdilution susceptibility assay, Neisseria gonorrhoeae; assay type: cell-based
[2] = tested on: Streptococcus pneumoniae; experiment: Broth microdilution susceptibility assay, Streptococcus pneumoniae; assay type: cell-based
[3] = tested on: Enterobacter cloacae; experiment: Broth microdilution susceptibility assay, Enterobacter cloacae; assay type: cell-based
[4] = tested on: murine P388 lymphocytic leukemia cell line and a selection of human cancer cell lines; experiment: Cancer cell growth inhibition, P388 and human cancer cell line panel (summary in words); assay type: cell-based
Text: (§1) Biology The cancer cell growth inhibitory properties were examined using the murine P388 lymphocytic leukemia cell line and a selection of human cancer cell lines.

[5] = tested on: Candida albicans; experiment: Broth microdilution susceptibility assay, Candida albicans; assay type: cell-based
[6] = tested on: Escherichia coli; experiment: Broth microdilution susceptibility assay, Escherichia coli; assay type: cell-based
[7] = tested on: Stenotrophomonas maltophilia; experiment: Broth microdilution susceptibility assay, Stenotrophomonas maltophilia; assay type: cell-based; conditions: read-out: Range of minimum inhibitory concentration
[8] = tested on: Enterococcus faecalis; experiment: Broth microdilution susceptibility assay, Enterococcus faecalis; assay type: cell-based
[9] = tested on: Staphylococcus aureus; experiment: Broth microdilution susceptibility assay, Staphylococcus aureus; assay type: cell-based
[10] = tested on: Cryptococcus neoformans; experiment: Broth microdilution susceptibility assay, Cryptococcus neoformans; assay type: cell-based
[11] = tested on: Micrococcus luteus; experiment: Broth microdilution susceptibility assay, Micrococcus luteus; assay type: cell-based
[12] = tested on: prostrate DU-145; experiment: Cancer cell growth inhibition, prostate DU-145; assay type: cell-based, human; conditions: Homo sapiens
Experimental: as §1
(§2) All of the synthetic products were evaluated against a minipanel of human cancer cell lines, the murine P388 lymphocytic leukemia cell line and a selection of microorganisms.

[13] = tested on: lung NCI-H460; experiment: Cancer cell growth inhibition, lung NCI-H460; assay type: cell-based, human; conditions: Homo sapiens
How it was run: (§3)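 Growth inhibition in murine P388 leukemia and human cancer cell line panels (Arizona State University minipanel and NCI 60-cell screen).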

[14] = tested on: colon KM 20L2; experiment: Cancer cell growth inhibition, colon KM 20L2; assay type: cell-based, human; conditions: Homo sapiens
How it was run: as §3

[15] = tested on: murine P388 lymphocytic leukemia cell line; experiment: Cancer cell growth inhibition, murine P388 lymphocytic leukemia cell line; assay type: cell-based; conditions: Mus musculus
How it was run: as §3

[16] = tested on: pancreas BXPC-3; experiment: Cancer cell growth inhibition, pancreas BXPC-3; assay type: cell-based, human; conditions: Homo sapiens
Experimental: as §1, §2

[17] = tested on: breast MCF-7; experiment: Cancer cell growth inhibition, breast MCF-7; assay type: cell-based, human; conditions: Homo sapiens
Experimental: as §1, §2

[18] = Antimicrobial activity in the presence of human serum; assay type: cell-based
Text: The antimicrobial activity of phenols 15 and 18 in the presence of human serum was also investigated.

[19] = tested on: CNS SF-268; experiment: Cancer cell growth inhibition, CNS SF-268; assay type: cell-based, human; conditions: Homo sapiens
Experimental: as §1, §2

[20] = tested on: tubulin; experiment: Tubulin polymerization (assembly) inhibition; assay type: biochemical; conditions: b62 series; read-out: IC50 for inhibition of extent of tubulin assembly
Experimental: Only minimal inhibitory activity was observed. While compounds 15 and 8 did inhibit the rate of polymerization by over 50% at 40 μM (the highest concentration examined), an IC50 value for inhibition of assembly extent was obtained only for compound 18. […] Thus, it seems unlikely that the cytotoxic mechanism for these aaptamine analogs derives from an interaction with tubulin.
A number of the aaptamine derivatives whose synthesis is described here were examined for potential effects on tubulin assembly. These were compounds 2, 4, 5, 9a-c, and 10a-d. […] For comparison, in experiments performed contemporaneously, the potent colchicine site drug combretastatin A-4 yielded an IC50 value of about 2 μM.

[21] = Table 4, read-out: Range of minimum inhibitory concentration
[22] = Table 4, Stenotrophomonas maltophil
[23] = read-out: Range of minimum inhibitory concentration

## COc1cc2ccnc3c2c(c1OC)N(C)C=C3 [Compound 14, 1-Methyl-8,9-dimethoxy-1H-benzo[de][1,6]naphthyridine trifluoromethane-sulfonate]
[1]; [21]
  MIC: > 64 µg/mL
[2]; [21]
  MIC: 64 µg/mL (≈ 264 µM)
[3]; [21]
  MIC: > 64 µg/mL
[4]
  cancer cell growth inhibitory activity: marginal activity
[5]; [21]
  MIC: > 64 µg/mL
[6]; [21]
  MIC: > 64 µg/mL
[7]; [22]
  MIC: > 64 µg/mL
[8]; [21]
  MIC: > 64 µg/mL
[9]; [21]
  MIC: > 64 µg/mL
[10]; [21]
  MIC: > 64 µg/mL
[11]; [21]
  MIC: > 64 µg/mL

## Oc1cc2ccnc3c2c(c1O)NC=C3 [Compound 15, 8,9-Dihydroxy-1H-Benzo[de][1,6]naphthyridine hydrobromide]
[1]; [21]
  MIC: > 0.5 µg/mL
[12]; Table 3, prostrate DU-145, read-out: Cancer cell growth inhibitory ED50
  IC50: 1.1 µg/mL
[13]; Table 3, lung NCI-H460, read-out: Cancer cell growth inhibitory ED50
  IC50: 0.52 µg/mL
[2]; [21]
  MIC: 8 µg/mL
[14]; Table 3, colon KM 20L2, read-out: Cancer cell growth inhibitory ED50
  IC50: 0.3 µg/mL
[15]; P388, Table 3, leukemia P-388, read-out: Cancer cell growth inhibitory ED50
  IC50: 0.12 µg/mL
[16]; Table 3, pancreas BXPC-3, read-out: Cancer cell growth inhibitory ED50
  IC50: 0.33 µg/mL
[17]; MCF7, Table 3, breast MCF-7, read-out: Cancer cell growth inhibitory ED50
  IC50: 0.31 µg/mL
[3]; [21]
  MIC: > 64 µg/mL
[5]; [21]
  MIC: 64 µg/mL
[6]; [21]
  MIC: 16 to 64 µg/mL
[7]; [22]
  MIC: 32 µg/mL
[18]
  minimum inhibitory concentrations in the presence of human serum versus absence of serum: identical or one 2-fold dilution lower
[8]; [21]
  MIC: 8 to 16 µg/mL
[9]; [21]
  MIC: 4 to 8 µg/mL
[19]; Table 3, CNS SF-268, read-out: Cancer cell growth inhibitory ED50
  IC50: 0.8 µg/mL
[10]; [21]
  MIC: 32 µg/mL
[11]; [21]
  MIC: 4 µg/mL

## COc1cc2ccnc3c2c(c1O)NC=C3 [Compound 18, 9-Demethylaaptamine hydrobromide]
[1]; [23]
  MIC: > 0.5 µg/mL
[12]; DU-145, read-out: Cancer cell growth inhibitory ED50
  IC50: 1.8 µg/mL
[13]; NCI-H460, read-out: Cancer cell growth inhibitory ED50
  IC50: 2 µg/mL
[2]; [23]
  MIC: 2 to 4 µg/mL
[14]; KM-20L2, read-out: Cancer cell growth inhibitory ED50
  IC50: 1.7 µg/mL
[20]
  IC50: 37 ± 4 µM
[15]; P388, read-out: Cancer cell growth inhibitory ED50
  IC50: 0.22 µg/mL
[16]; BXPC-3, read-out: Cancer cell growth inhibitory ED50
  IC50: 1.6 µg/mL
[17]; MCF7, read-out: Cancer cell growth inhibitory ED50
  IC50: 0.66 µg/mL
[3]; [23]
  MIC: > 64 µg/mL
[5]; [23]
  MIC: 64 µg/mL
[6]; [23]
  MIC: 32 to 64 µg/mL
[7]
  MIC: > 64 µg/mL
[18]
  minimum inhibitory concentrations in the presence of human serum versus absence of serum: identical or one 2-fold dilution lower
[8]; [23]
  MIC: 8 to 32 µg/mL
[9]; [23]
  MIC: 16 µg/mL
[19]; SF-268, read-out: Cancer cell growth inhibitory ED50
  IC50: 1.4 µg/mL
[10]; [23]
  MIC: 32 µg/mL
[11]; [23]
  MIC: 8 µg/mL
